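Cells were grown in 96-well plates and exposed to each compound for 48 hours at five concentrations; endpoints were interpolated linearly between bracketing concentrations, or set to the highest concentration if not reached. Abbreviation: GI50, concentration required for 50% inhibition of growth. The concentration for full growth arrest is given as TGI.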
Assays:
Assay in all cases: growth of human tumour cells (NCI), 48 h
RPMI-8226 leukemia = tested on: RPMI-8226 leukemia
HOP-92 NSCLC = tested on: HOP-92 NSCLC
SK-MEL-2 melanoma = tested on: SK-MEL-2 melanoma
A498 renal = tested on: A498 renal
OVCAR-4 ovarian = tested on: OVCAR-4 ovarian
PC-3 prostate = tested on: PC-3 prostate
SK-MEL-5 melanoma = tested on: SK-MEL-5 melanoma
TK-10 renal = tested on: TK-10 renal
HS 578T breast = tested on: HS 578T breast
786-0 renal = tested on: 786-0 renal

Structure (SMILES) | TGI (RPMI-8226 leukemia) [µM] | TGI (HOP-92 NSCLC) [µM] | TGI (SK-MEL-2 melanoma) [µM] | TGI (A498 renal) [µM] | TGI (OVCAR-4 ovarian) [µM] | TGI (PC-3 prostate) [µM] | TGI (SK-MEL-5 melanoma) [µM] | TGI (TK-10 renal) [µM] | TGI (HS 578T breast) [µM] | TGI (786-0 renal) [µM] | GI50 (RPMI-8226 leukemia) [µM] | GI50 (HOP-92 NSCLC) [µM] | GI50 (SK-MEL-2 melanoma) [µM] | GI50 (A498 renal) [µM] | GI50 (OVCAR-4 ovarian) [µM] | GI50 (PC-3 prostate) [µM] | GI50 (SK-MEL-5 melanoma) [µM] | GI50 (TK-10 renal) [µM] | GI50 (HS 578T breast) [µM]
CCOc1cc(-c2nc3ccccn3c2/N=C/c2cc(Br)ccc2O)ccc1O | > 100 | 64.5 | > 100 | 90.5 | 38.7 | 73.3 | > 100 | 48.7 | > 100 | 60.4 |  |  |  |  |  |  |  |  | 
Cn1c([O-])nc(-n2cc[n+](C)c2)cc1=O | > 100 | > 100 | > 100 | > 100 | > 100 | > 100 | > 100 | > 100 | > 100 | > 100 |  |  |  |  |  |  |  |  | 
Cc1nn(-c2cc(Cl)ccc2[N+](=O)[O-])c(C)c1Cl | > 100 |  | > 100 | > 100 | > 100 | > 100 | > 100 | > 100 | > 100 | > 100 |  |  |  |  |  |  |  |  | 
CCOC(=O)/C(C#N)=N\Nc1ccc(-n2c(C)nc3ccccc3c2=O)cc1 | > 100 | > 100 | > 100 | > 100 |  | > 100 | 36.6 | > 100 | > 100 | > 100 |  |  |  |  |  |  |  |  | 
CC(=O)OCC(OC(C)=O)C1C[C@H]2O[C@@H]3[C@H](C[C@H]2O1)O[C@@]1(C[C@@H]3C)C[C@H](C)[C@@H]2O[C@]3(C[C@@H]2O1)C[C@H]1O[C@H]2[C@H](C)[C@H]4OC(=O)CC5CC[C@H]6OC7[C@H]8O[C@]9(CC[C@H]%10CC(O)(CO)[C@H](CC[C@H]%11C[C@@H](C)C(O)(CO)C(C[C@@H]4O[C@H]2C[C@H]1O3)O%11)O%10)CC8O[C@@H]7[C@@H](O9)[C@H]6O5 (stereo not given in full) |  | > 1 | > 1 | > 1 | > 1 | > 1 | > 1 | > 1 | 0.00517 | > 1 |  |  |  |  |  |  |  |  | 
OC1(c2ccc(Cl)cc2)c2ccc3ccccc3c2C2=N[C@H]3CCCC[C@@H]3N21 (stereo not given in full) | 31 | 77.3 | > 100 | 52.7 | > 100 | 51.2 | > 100 | 4.87 | 3.94 |  |  |  |  |  |  |  |  |  | 
COCC1OC(N2C(=O)NC(=O)[C@@H]3C=C4CCCCC4=C[C@@H]32)C(OC)C1OC (stereo not given in full) | > 100 | > 100 | > 100 | > 100 | > 100 | > 100 |  | > 100 | > 100 | > 100 |  |  |  |  |  |  |  |  | 
c1ccc2c3c(c(N4CCOCC4)nc2c1)CCCC3 |  | > 100 | > 100 | 81.6 | > 100 | > 100 | 54.7 | > 100 | > 100 | 92.9 |  |  |  |  |  |  |  |  | 
Cc1cc2[nH]c3c(C#N)c4c(c(=O)n3c2cc1C)CCCC4 |  | > 100 | > 100 | > 100 | > 100 | > 100 | > 100 | > 100 | > 100 | > 100 |  |  |  |  |  |  |  |  | 
CCN1CCC(O)(C(C(=O)O)c2ccccc2)CC1 (stereo not given) | > 100 |  | > 100 | > 100 | > 100 | > 100 | > 100 | > 100 | > 100 |  |  |  |  |  |  |  |  |  | 
N#Cc1c(-c2ccc(F)cc2)nc(N/N=C/c2c[nH]c3ccccc23)nc1N1CCOCC1 | > 100 | 52.4 | 17.7 | 11.5 | 62.8 | > 100 | 25.9 | 61 | 32.5 |  | 3.35 | 2.44 | 3.5 | 1.33 | 16.1 | 3.54 | 10.9 | 15.5 | 3.62
COc1ccc(-c2c(C#N)c(N)nc3c2CCS(=O)(=O)c2ccccc2-3)cc1 |  | > 100 | > 100 | > 100 | > 100 | > 100 | > 100 | > 100 | > 100 | > 100 |  |  |  |  |  |  |  |  | 
CCOC(=O)C(CC#Cc1ccc(C#CCC(NC(C)=O)C(=O)OCC)cc1)NC(C)=O (stereo not given) | > 100 |  | > 100 | > 100 | > 100 | > 100 | > 100 | > 100 | > 100 | > 100 |  |  |  |  |  |  |  |  | 
Cc1cc2ncc3c(=O)n(NS(=O)(=O)c4ccc(N)cc4)ccc3n2n1 |  | > 100 | > 100 | > 100 | > 100 | > 100 | > 100 | > 100 | > 100 | > 100 |  |  |  |  |  |  |  |  | 
O=c1c(-c2ccc(Cl)cc2)nnc2n(Cc3ccccc3)c3ccccc3n12 |  | 42.6 | > 100 | 69.5 | 30.7 | > 100 | > 100 | 61.8 | > 100 | 42.8 |  |  |  |  |  |  |  |  | 

Source: PubChem BioAssay (NCI)
